Numbers after ± are expanded uncertainties.
Assay: xn = mol fraction of the nth substance listed
Details: for surface tension liquid-gas: Ring tensiometer; for mass density: 101.3 kPa, Liquid

COCCOCCOC [2,5,8-trioxanonane] + O
Details	mass density [kg/m3]	surface tension liquid-gas [mN/m]
298.15 K, x1 = 0.0047	–	49.27 ± 0.86
298.15 K, x1 = 0.0141	–	44.11 ± 0.81
298.15 K, x1 = 0.0188	1002.55 ± 0.26	–
298.15 K, x1 = 0.0279	–	42.26 ± 0.79
298.15 K, x1 = 0.0456	–	39.85 ± 0.78
298.15 K, x1 = 0.0543	1006.8 ± 0.28	–
298.15 K, x1 = 0.0874	–	35.99 ± 0.75
298.15 K, x1 = 0.1184	–	31.62 ± 0.73
298.15 K, x1 = 0.1289	1002.43 ± 0.27	–
298.15 K, x1 = 0.1582	–	30.69 ± 0.72
298.15 K, x1 = 0.1903	994.76 ± 0.29	–
298.15 K, x1 = 0.2241	–	30.45 ± 0.72
298.15 K, x1 = 0.3191	–	29.9 ± 0.72
298.15 K, x1 = 0.3195	978.75 ± 0.37	–
298.15 K, x1 = 0.4068	970.55 ± 0.42	–
298.15 K, x1 = 0.4283	–	28.69 ± 0.71
298.15 K, x1 = 0.4993	963.15 ± 0.48	–
298.15 K, x1 = 0.5164	–	28.08 ± 0.71
298.15 K, x1 = 0.621	955.66 ± 0.56	–
298.15 K, x1 = 0.6493	–	27.9 ± 0.72
298.15 K, x1 = 0.7181	950.74 ± 0.62	–
298.15 K, x1 = 0.7841	–	26.77 ± 0.72
298.15 K, x1 = 0.8097	946.27 ± 0.69	–
298.15 K, x1 = 0.8737	–	26.29 ± 0.72
298.15 K, x1 = 0.9099	942.33 ± 0.76	–
298.15 K, x1 = 0.9228	–	25.69 ± 0.71
298.15 K, x1 = 0.9551	940.97 ± 0.8	–
298.15 K, x1 = 0.9704	–	25.19 ± 0.71
298.15 K, x1 = 1	940.01 ± 0.83	24.56 ± 0.71
308.15 K, x1 = 0.0014	–	53.47 ± 0.88
308.15 K, x1 = 0.0038	–	50.51 ± 0.85
308.15 K, x1 = 0.0085	–	47.12 ± 0.83
308.15 K, x1 = 0.0142	–	44.72 ± 0.81
308.15 K, x1 = 0.0188	998.41 ± 0.26	–
308.15 K, x1 = 0.0279	–	41.3 ± 0.79
308.15 K, x1 = 0.0457	–	38.99 ± 0.77
308.15 K, x1 = 0.0543	1001.43 ± 0.26	–
308.15 K, x1 = 0.0875	–	33.65 ± 0.74
308.15 K, x1 = 0.12	–	32.57 ± 0.73
308.15 K, x1 = 0.1289	996.23 ± 0.28	–
308.15 K, x1 = 0.1602	–	31.09 ± 0.72
308.15 K, x1 = 0.1903	987.3 ± 0.31	–
308.15 K, x1 = 0.2265	–	29.75 ± 0.72
308.15 K, x1 = 0.3195	970.44 ± 0.4	–
308.15 K, x1 = 0.3217	–	29.19 ± 0.72
308.15 K, x1 = 0.4068	961.72 ± 0.45	–
308.15 K, x1 = 0.4305	–	28.79 ± 0.72
308.15 K, x1 = 0.4993	954.06 ± 0.51	–
308.15 K, x1 = 0.5179	–	28.41 ± 0.72
308.15 K, x1 = 0.621	945.87 ± 0.58	–
308.15 K, x1 = 0.6498	–	28.3 ± 0.72
308.15 K, x1 = 0.7181	940.7 ± 0.65	–
308.15 K, x1 = 0.7831	–	27.7 ± 0.72
308.15 K, x1 = 0.8097	936.34 ± 0.71	–
308.15 K, x1 = 0.8744	–	27.58 ± 0.73
308.15 K, x1 = 0.9099	932.39 ± 0.79	–
308.15 K, x1 = 0.9165	–	27.54 ± 0.73
308.15 K, x1 = 0.9551	931.05 ± 0.82	–
308.15 K, x1 = 0.9645	–	27.43 ± 0.73
308.15 K, x1 = 1	930.03 ± 0.86	27.65 ± 0.73
318.15 K, x1 = 0.0015	–	55.76 ± 0.9
318.15 K, x1 = 0.0038	–	51.77 ± 0.87
318.15 K, x1 = 0.0081	–	48.33 ± 0.84
318.15 K, x1 = 0.0135	–	45.61 ± 0.82
318.15 K, x1 = 0.0188	994.3 ± 0.27	–
318.15 K, x1 = 0.0269	–	41.95 ± 0.79
318.15 K, x1 = 0.0444	–	39.33 ± 0.77
318.15 K, x1 = 0.0543	996.25 ± 0.27	–
318.15 K, x1 = 0.0857	–	34.62 ± 0.74
318.15 K, x1 = 0.1091	–	28.86 ± 0.71
318.15 K, x1 = 0.1289	989.1 ± 0.3	–
318.15 K, x1 = 0.156	–	26.65 ± 0.7
318.15 K, x1 = 0.1903	979.79 ± 0.34	–
318.15 K, x1 = 0.2194	–	25.34 ± 0.7
318.15 K, x1 = 0.3174	–	24.45 ± 0.69
318.15 K, x1 = 0.3195	961.72 ± 0.42	–
318.15 K, x1 = 0.4068	952.75 ± 0.48	–
318.15 K, x1 = 0.4248	–	24.26 ± 0.69
318.15 K, x1 = 0.4993	944.64 ± 0.53	–
318.15 K, x1 = 0.511	–	24.18 ± 0.7
318.15 K, x1 = 0.621	936.5 ± 0.61	–
318.15 K, x1 = 0.6513	–	23.87 ± 0.7
318.15 K, x1 = 0.7181	931.28 ± 0.67	–
318.15 K, x1 = 0.7915	–	23.64 ± 0.7
318.15 K, x1 = 0.8097	926.76 ± 0.74	–
318.15 K, x1 = 0.8844	–	23.5 ± 0.7
318.15 K, x1 = 0.9099	922.58 ± 0.81	–
318.15 K, x1 = 0.9137	–	23.48 ± 0.7
318.15 K, x1 = 0.9547	–	23.46 ± 0.7
318.15 K, x1 = 0.9551	921.12 ± 0.84	–
318.15 K, x1 = 1	919.99 ± 0.88	23.44 ± 0.71

Reference: the NIST ThermoML archive (doi:10.1021/je100757w)
